Measurements published in patent EP2957607B1, “IMAGE FORMING METHOD” (Konica Minolta, Inc., priority 2014, dated 2015).

Test: pKa value (acid dissociation constant) of the adsorption inhibitor
Assay type: physicochemical
Excerpt: The pKa value is also called the acid dissociation constant, which can be determined by a conventional method. The pKa value can be determined by, for example, the method described in Jikken Kagaku Koza 5, Netsuteki Sokutei oyobi Heiko (Experimental Chemistry Lecture 5, Thermal Measurements and Equilibrium), page 460, edited by The Chemical Society of Japan, Maruzen Co., Ltd.

O=C(O)CC(O)C(=O)O (stereo not shown) [malic acid, Malic acid]
pKa: < 5.5
